Source: patent EP1161438B1, “6-O-SUBSTITUTED MACROLIDES HAVING ANTIBACTERIAL ACTIVITY” (ABBOTT LABORATORIES, priority 1999, dated 2000)
≈ marks a conversion by molar mass, not a printed value.

Columns and labels:
Experiment in all cases: Agar dilution antibacterial MIC assay
Format in all cases: cell-based
[1] = system: Haemophilis Influenzae DILL AMP R; details: organism code WW, BHI agar, 35-37 °C, 20 to 24 hours, unit assumed
Experimental: (§1) Representative compounds of the present invention were assayed in vitro for antibacterial activity as follows: Twelve petri dishes containing successive aqueous dilutions of the test compound mixed with 10 mL of sterilized Brain Heart Infusion (BHI) agar (Difco 0418-01-5) were prepared. Each plate was inoculated with 1:100 (or 1:10 for slow-growing strains, such as Micrococcus and Streptococcus) dilutions of up to 32 different microorganisms, using a Steers replicator block. […] In addition, a control plate, using BHI agar containing no test compound, was prepared and incubated at the beginning and end of each test.
(§2) An additional plate containing a compound having known susceptibility patterns for the organisms being tested and belonging to the same antibiotic class as the test compound was also prepared and incubated as a further control, as well as to provide test-to-test comparability.
(§3) After incubation, each plate was visually inspected. The minimum inhibitory concentration (MIC) was defined as the lowest concentration of drug yielding no growth, a slight haze, or sparsely isolated colonies on the inoculum spot as compared to the growth control.

[2] = system: Mycobacterium smegmatis ATCC 114; details: organism code UU, BHI agar, 35-37 °C, 20 to 24 hours, unit assumed
Experimental: as §1, §2, §3

[3] = system: Streptococcus Pneumonia GYR 1171; details: organism code YY, BHI agar, 35-37 °C, 20 to 24 hours, unit assumed
Experimental: as §1, §2, §3

[4] = system: Escherichia coli SS; details: organism code RR, BHI agar, 35-37 °C, 20 to 24 hours, unit assumed
Experimental: as §1, §2, §3

[5] = system: Escherichia coli JUHL; details: organism code QQ, BHI agar, 35-37 °C, 20 to 24 hours, unit assumed
Experimental: as §1, §2, §3

[6] = system: Escherichia coli DC-2; details: organism code SS, BHI agar, 35-37 °C, 20 to 24 hours, unit assumed
Experimental: as §1, §2, §3

[7] = system: Micrococcus luteus ATCC 9341; details: organism code OO, BHI agar, 35-37 °C, 20 to 24 hours, unit assumed
Experimental: as §1, §2, §3

[8] = system: Streptococcus Pneumonia 5649; details: organism code ZZA, BHI agar, 35-37 °C, 20 to 24 hours, unit assumed
Experimental: as §1, §2, §3

[9] = system: Streptococcus pyogenes EES61; details: organism code LL, BHI agar, 35-37 °C, 20 to 24 hours, unit assumed
Experimental: as §1, §2, §3

[10] = system: Streptococcus pyogenes 930; details: organism code MM, BHI agar, 35-37 °C, 20 to 24 hours, unit assumed
Experimental: as §1, §2, §3

[11] = system: Staphylococcus aureus 1775; details: organism code GG, BHI agar, 35-37 °C, 20 to 24 hours, unit assumed
Experimental: as §1, §2, §3

[12] = system: Micrococcus luteus ATCC 4698; details: organism code PP, BHI agar, 35-37 °C, 20 to 24 hours, unit assumed
Experimental: as §1, §2, §3

[13] = system: Streptococcus Pneumonia ATCC6303; details: organism code XX, BHI agar, 35-37 °C, 20 to 24 hours, unit assumed
Experimental: as §1, §2, §3

[14] = system: Staphylococcus epidermidis 3519; details: organism code HH, BHI agar, 35-37 °C, 20 to 24 hours, unit assumed
Experimental: as §1, §2, §3

[15] = system: Enterococcus faecium ATCC 8043; details: organism code II, BHI agar, 35-37 °C, 20 to 24 hours, unit assumed
Experimental: as §1, §2, §3

[16] = system: Staphylococcus aureus ATCC 6538P; details: organism code AA, BHI agar, 35-37 °C, 20 to 24 hours, unit assumed
Experimental: as §1, §2, §3

[17] = system: Staphylococcus aureus CMX 642A; details: organism code DD, BHI agar, 35-37 °C, 20 to 24 hours, unit assumed
Experimental: as §1, §2, §3

[18] = system: Staphylococcus aureus CMX 553; details: organism code FF, BHI agar, 35-37 °C, 20 to 24 hours, unit assumed
Experimental: as §1, §2, §3

[19] = system: Nocardia Asteroides ATCC9970; details: organism code VV, BHI agar, 35-37 °C, 20 to 24 hours, unit assumed
Experimental: as §1, §2, §3

[20] = system: Candida albicans CCH 442; details: organism code TT, BHI agar, 35-37 °C, 20 to 24 hours, unit assumed
Experimental: as §1, §2, §3

[21] = system: Streptococcus agalactiae CMX 508; details: organism code KK, BHI agar, 35-37 °C, 20 to 24 hours, unit assumed
Experimental: as §1, §2, §3

[22] = system: Streptococcus pyogenes PIU 2548; details: organism code NN, BHI agar, 35-37 °C, 20 to 24 hours, unit assumed
Experimental: as §1, §2, §3

[23] = system: Streptococcus bovis A-5169; details: organism code JJ, BHI agar, 35-37 °C, 20 to 24 hours, unit assumed
Experimental: as §1, §2, §3

[24] = system: Staphylococcus aureus A5177; details: organism code BB, BHI agar, 35-37 °C, 20 to 24 hours, unit assumed
Experimental: as §1, §2, §3

[25] = system: Staphylococcus aureus NCTC10649M; details: organism code EE, BHI agar, 35-37 °C, 20 to 24 hours, unit assumed
Experimental: as §1, §2, §3

[26] = system: Staphylococcus aureus A-5278; details: organism code CC, BHI agar, 35-37 °C, 20 to 24 hours, unit assumed
Experimental: as §1, §2, §3

[27] = system: Streptococcus Pneumonia 5979; details: organism code ZZ, BHI agar, 35-37 °C, 20 to 24 hours, unit assumed
Experimental: as §1, §2, §3

Row | Compound | MIC [1] [µg/mL] | MIC [2] [µg/mL] | MIC [3] [µg/mL] | MIC [4] [µg/mL] | MIC [5] [µg/mL] | MIC [8] [µg/mL] | MIC [9] [µg/mL] | MIC [10] [µg/mL] | MIC [11] [µg/mL] | MIC [12] [µg/mL] | MIC [13] [µg/mL] | MIC [14] [µg/mL] | MIC [16] [µg/mL] | MIC [19] [µg/mL] | MIC [20] [µg/mL] | MIC [21] [µg/mL] | MIC [22] [µg/mL] | MIC [23] [µg/mL] | MIC [24] [µg/mL] | MIC [26] [µg/mL] | also measured
1 | CC[C@H]1OC(=O)[C@H](C)[C@@H](O[C@H]2C[C@@](C)(OC)[C@@H](O)[C@H](C)O2)[C@H](C)[C@@H](O[C@@H]2O[C@H](C)C[C@H](N(C)C)[C@H]2O)[C@](C)(O)C[C@@H](C)C(=O)[C@H](C)[C@@H](O)[C@]1(C)O [Ery. A standard, Erythromycin A, reference compound] | 4 (≈ 5.45 µM) | 3.1 (≈ 4.22 µM) | 0.06 (≈ 0.0818 µM) | 0.78 (≈ 1.06 µM) | > 100 | 16 (≈ 21.8 µM) | 0.05 (≈ 0.0681 µM) | > 100 | > 100 | 0.2 (≈ 0.273 µM) | 0.06 (≈ 0.0818 µM) | 0.39 (≈ 0.531 µM) | 0.2 (≈ 0.273 µM) | 0.1 (≈ 0.136 µM) | > 100 | 0.05 (≈ 0.0681 µM) | 6.2 (≈ 8.45 µM) | 0.02 (≈ 0.0273 µM) | 3.1 (≈ 4.22 µM) | > 100 | MIC [6]: > 100 µg/mL; MIC [7]: 0.05 µg/mL (≈ 0.0681 µM); MIC [15]: 0.05 µg/mL (≈ 0.0681 µM); MIC [17]: 0.39 µg/mL (≈ 0.531 µM); MIC [18]: 0.39 µg/mL (≈ 0.531 µM); MIC [25]: 0.39 µg/mL (≈ 0.531 µM)
2 | CC[C@H]1OC(=O)[C@H](C)C(=O)[C@H](C)[C@@H](O[C@@H]2O[C@H](C)C[C@H](N(C)C)[C@H]2O)[C@](C)(OCC#Cc2ccc(-c3ccncc3)s2)C[C@@H](C)C(=O)[C@H](C)[C@H]2NC(=O)O[C@@]21C [Example 3, Compound of Formula I: R^b is H, L is -C(O)-, T is -NH-, R is-(CH2)-C≡C-(5-(4-pyridyl)-2-thienyl)] | 2 | 0.039 | ≤ 0.004 | 0.2 | 100 | 0.125 | ≤ 0.05 | 6.2 | – | 0.05 | ≤ 0.004 | > 100 | 0.05 | 0.01 | > 100 | ≤ 0.05 | 0.1 | ≤ 0.05 | 0.05 | > 100 | MIC [17]: 0.1 µg/mL; MIC [27]: 2 µg/mL
3 | Compound of Formula II: R^b is H, R is -(CH2)-C≡C-(5-(2-pyridyl)-2-thienyl) [Example 4] | 4 | 0.2 | ≤ 0.004 | 0.39 | 25 | 0.25 | 0.02 | 6.2 | > 100 | 0.2 | ≤ 0.004 | 0.1 | 0.05 | 0.02 | > 100 | 0.05 | 0.2 | 0.01 | 0.1 | > 100 | MIC [27]: 4 µg/mL; MIC [25]: 0.2 µg/mL
4 | CC[C@H]1OC(=O)[C@H](C)C(=O)[C@H](C)[C@@H](O[C@@H]2O[C@H](C)C[C@H](N(C)C)[C@H]2O)[C@](C)(OCC#Cc2ccc(-c3ccccn3)s2)C[C@@H](C)C(=O)[C@H](C)[C@H]2NC(=O)O[C@@]21C [Example 1, Compound of Formula I: R^b is H, L is -C(O)-, T is -NH-, R is-(CH2)-C≡C-(5-(2-pyridyl)-2-thienyl)] | 2 | 0.2 | 0.03 | 0.1 | 12.5 | 0.25 | 0.02 | 12.5 | > 100 | 0.1 | 0.03 | 0.1 | 0.05 | 0.02 | > 100 | 0.02 | 0.1 | 0.01 | 0.05 | > 100 | MIC [6]: 6.2 µg/mL; MIC [7]: 0.02 µg/mL; MIC [15]: 0.05 µg/mL; MIC [17]: 0.05 µg/mL; MIC [18]: 0.05 µg/mL; MIC [27]: 0.25 µg/mL; MIC [25]: 0.1 µg/mL
5 | CC[C@H]1OC(=O)[C@H](C)C(=O)[C@H](C)[C@@H](O[C@@H]2O[C@H](C)C[C@H](N(C)C)[C@H]2O)[C@](C)(OCC#Cc2ccc(-c3ccccn3)s2)C[C@@H](C)C(=O)[C@H](C)[C@H]2N(N)C(=O)O[C@]12C [Example 5, Compound of Formula I: R^b is H, L is -C(O)-, T is -N(W-R^d)-, W is -NH-, R^d is H, R is-(CH2)-C≡C-(5-(2-pyridyl)-2-thienyl)] | 2 | 1.56 | 0.015 | 0.2 | 25 | 0.25 | 0.01 | 50 | > 100 | 0.1 | 0.015 | 0.1 | 0.05 | 0.01 | > 100 | ≤ 0.005 | 0.39 | ≤ 0.005 | 0.05 | > 100 | MIC [27]: 2 µg/mL; MIC [25]: 0.1 µg/mL
